Reference: patent publication US20240317683A1, “METHODS OF TREATING MOOD DISORDERS” (priority 2020, published 2024)
pEC50, pIC50: −log10 of the molar value. Structures can show the parent of a compound that is named as a salt.

Columns and labels:
[1] = biological target: CYP3A4 (Homo sapiens (Human), UniProt P08684); test: CYP inhibition in human liver microsomes, CYP3A4; type: in vitro ADME; settings: for inhibition at 10 min, 10 µM: both sexes, human, pooled human liver microsomes, pH 7.4, probe midazolam (2 μM), HLM, midazolam substrate, read-out: CYP 3A4 % Inhibition at 10 μM
[2] = biological target: CYP2D6 (Homo sapiens (Human), UniProt P10635); test: CYP inhibition in human liver microsomes, CYP2D6; type: in vitro ADME; settings: for inhibition at 10 min, 10 µM: both sexes, human, pooled human liver microsomes, pH 7.4, probe dextromethorphan (5 μM), HLM, dextromethorphan substrate, read-out: CYP 2D6 % Inhibition at 10 μM
[3] = biological target: CYP1A2 (Homo sapiens (Human), UniProt P05177); test: CYP inhibition in human liver microsomes, CYP1A2; type: in vitro ADME; settings: for inhibition at 10 min, 10 µM: both sexes, human, pooled human liver microsomes, pH 7.4, probe phenacetin (10 μM), HLM, phenacetin substrate, read-out: CYP 1A2 % Inhibition at 10 μM
Procedure: (§1) HLM Incubations. Pooled HLM from adult male and female donors (Corning 452117) were used. Microsomal incubations were carried out in multi-well plates. Liver microsomal incubation aliquots contained 1) PBS (100 mM, pH 7.4), MgCl2 (3.3 mM), and NADPH (1 mM); 2) liver microsomal protein (0.2 mg/mL); 3) the reference CYP substrates: phenacetin for CYP1A2 (10 μM), diclofenac for CYP2C9 (5 μM), (S)-mephenytoin for CYP2C19 (30 μM), dextromethorphan for CYP2D6 (5 μM), and midazolam for CYP3A4 (2 μM); and 4) test compounds (10 μM), control inhibitors (3 μM α-naphthoflavone for CYP1A2, 3 μM sulfaphenazole for CYP2C9, 1 μM (+)-N-3-benzylnirvanol for 2C19, 3 μM quinidine for CYP2D6, or 3 μM ketoconazole for CYP3A4), or solvent (for uninhibited condition). Incubations were carried out at 37° C. with constant shaking for 10 minutes.
(§2) Sample Analysis. […] Percent inhibition by test compounds or control inhibitors was calculated by comparing the metabolite formation in the presence of the inhibitor compared to the metabolite formation in the absence of the inhibitor.

[4] = biological target: CYP2C19 (Homo sapiens (Human), UniProt P33261); test: CYP inhibition in human liver microsomes, CYP2C19; type: in vitro ADME; settings: for inhibition at 10 min, 10 µM: both sexes, human, pooled human liver microsomes, pH 7.4, probe (S)-mephenytoin (30 μM), HLM, (S)-mephenytoin substrate, read-out: CYP 2C19 % Inhibition at 10 μM
Procedure: as §1, §2

[5] = biological target: CYP2C9 (Homo sapiens (Human), UniProt P11712); test: CYP inhibition in human liver microsomes, CYP2C9; type: in vitro ADME; settings: for inhibition at 10 min, 10 µM: both sexes, human, pooled human liver microsomes, pH 7.4, probe diclofenac (5 μM), HLM, diclofenac substrate, read-out: CYP 2C9 % Inhibition at 10 μM
[6] = biological target: human 5-HT2C receptor (Homo sapiens (Human), UniProt P28335); test: cell-based; type: cell-based; settings: Ca2+ flux
[7] = Pharmacokinetics in rats, plasma; type: in vivo; settings: male, Sprague Dawley, rat plasma, SC
Procedure: (§3) Animals. Male Sprague Dawley rats, aged 8-12 weeks, were used in these studies. Four rats were housed in each cage. Temperature and humidity were maintained at 22±3° C. and 30-70%, respectively, and illumination was controlled to give a 12 h light and 12 h dark cycle. Temperature and humidity were recorded by an auto-controlled data logger system. All animals were provided laboratory rodent diet and were fasted for 4 h pre-dose and 2 h post-dose. Reverse osmosis water treated with ultraviolet light was provided ad libitum. Animals were randomly assigned to treatment groups.
(§4) Drugs. Compounds 4 and 5 were prepared as described above. Compound 6 was commercially obtained. Test compounds were used as the hydrogen fumarate (6) or hydrochloride (4 and 5) salts and were dissolved in a vehicle consisting of normal saline. They were then administered subcutaneously (SC) at a dose of 1 or 10 mg/kg (calculated based on the free base) and at a volume of 5 mL/kg body weight.
(§5) Sample Collection and Bioanalysis. Blood samples (approximately 120 μL) were collected under light isoflurane anesthesia (Surgivet®) from the retro orbital plexus at 0.08, 0.25, 0.5, 1, 2, 4, 8, and 24 h (4 animals per time point). Immediately after blood collection, plasma was harvested by centrifugation at 4,000 rpm for 10 min at 4° C. and samples were stored at −70±10° C. until bioanalysis. Following blood collection, animals were immediately sacrificed, the abdominal vena-cava was cut open, and the whole body was perfused from the heart using 10 mL of normal saline, and brain samples were collected from all animals. After isolation, brain samples were rinsed three times in ice-cold normal saline (for 5-10 seconds/rinse using ˜5-10 mL normal saline in disposable petri dish for each rinse) and dried on blotting paper. Brain samples were homogenized using ice-cold phosphate-buffered saline (pH 7.4). Total homogenate volume was three times the tissue weight. All homogenates were stored at −70±10° C. until bioanalysis. For bioanalysis, 25 μL aliquots of plasma/brain study samples or spiked plasma/brain calibration standards were added to individual pre-labeled micro-centrifuge tubes followed by 100 μL of an internal standard solution (glipizide, 500 ng/ml in acetonitrile) except for blanks, where 100 μL of acetonitrile was added. Samples were vortexed for 5 minutes and then centrifuged for 10 minutes at 4,000 rpm at 4° C. Following centrifugation, 100 μL of each clear supernatant was transferred to a 96 well plate and analyzed with a fit-for-purpose LC-MS/MS method, with authentic samples of each analyte used for calibration and identification.
(§6) Data Analysis. Pharmacokinetic parameters were estimated using the non-compartmental analysis tool of Phoenix® WinNonlin software (Ver 8.0).

[8] = Pharmacokinetics in rats, brain; type: in vivo, Sprague Dawley rats; settings: rat brain, SC; for Cmax / Tmax / half-life: male, Sprague Dawley
Procedure: as §3, §4, §5, §6

Sequence of CYP2D6 (P10635 whole entry, looked up): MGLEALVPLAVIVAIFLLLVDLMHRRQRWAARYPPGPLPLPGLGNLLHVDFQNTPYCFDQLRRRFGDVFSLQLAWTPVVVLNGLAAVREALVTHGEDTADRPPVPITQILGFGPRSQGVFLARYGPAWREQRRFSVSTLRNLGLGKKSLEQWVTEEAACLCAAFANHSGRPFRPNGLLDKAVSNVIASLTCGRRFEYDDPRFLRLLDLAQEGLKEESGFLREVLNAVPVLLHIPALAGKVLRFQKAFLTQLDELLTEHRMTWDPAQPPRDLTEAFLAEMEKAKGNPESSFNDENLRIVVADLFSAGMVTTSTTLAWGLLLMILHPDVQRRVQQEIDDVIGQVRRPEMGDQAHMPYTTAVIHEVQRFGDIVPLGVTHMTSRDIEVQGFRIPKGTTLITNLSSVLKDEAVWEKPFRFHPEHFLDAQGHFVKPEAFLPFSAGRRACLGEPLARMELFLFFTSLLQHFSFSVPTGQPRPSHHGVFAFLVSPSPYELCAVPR
Sequence of human 5-HT2C receptor (P28335 33-458 limits assumed): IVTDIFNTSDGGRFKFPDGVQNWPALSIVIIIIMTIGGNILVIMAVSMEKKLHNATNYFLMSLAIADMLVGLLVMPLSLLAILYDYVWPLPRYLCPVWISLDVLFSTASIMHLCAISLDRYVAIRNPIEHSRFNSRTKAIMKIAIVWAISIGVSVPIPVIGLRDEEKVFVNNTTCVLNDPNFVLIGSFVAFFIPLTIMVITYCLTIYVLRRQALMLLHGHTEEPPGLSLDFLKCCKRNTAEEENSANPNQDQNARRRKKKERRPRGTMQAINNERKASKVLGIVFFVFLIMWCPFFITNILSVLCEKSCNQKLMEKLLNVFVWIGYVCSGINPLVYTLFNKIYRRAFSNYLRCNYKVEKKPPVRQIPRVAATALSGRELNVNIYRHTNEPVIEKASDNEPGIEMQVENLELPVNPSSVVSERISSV
Sequence of CYP2C9 (P11712 whole entry, looked up): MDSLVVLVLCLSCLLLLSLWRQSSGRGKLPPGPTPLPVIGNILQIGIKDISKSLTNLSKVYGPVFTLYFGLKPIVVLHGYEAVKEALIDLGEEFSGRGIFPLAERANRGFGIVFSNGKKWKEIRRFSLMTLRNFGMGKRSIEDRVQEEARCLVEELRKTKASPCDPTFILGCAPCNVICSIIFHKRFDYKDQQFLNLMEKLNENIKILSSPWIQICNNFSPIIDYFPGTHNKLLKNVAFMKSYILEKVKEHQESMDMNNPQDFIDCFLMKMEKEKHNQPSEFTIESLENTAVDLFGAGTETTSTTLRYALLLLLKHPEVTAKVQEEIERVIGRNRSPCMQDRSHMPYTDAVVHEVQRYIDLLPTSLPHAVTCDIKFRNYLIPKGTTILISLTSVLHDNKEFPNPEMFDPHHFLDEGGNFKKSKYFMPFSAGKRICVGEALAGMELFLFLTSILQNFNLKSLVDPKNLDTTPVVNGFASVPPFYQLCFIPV
Sequence of CYP1A2 (P05177 whole entry, looked up): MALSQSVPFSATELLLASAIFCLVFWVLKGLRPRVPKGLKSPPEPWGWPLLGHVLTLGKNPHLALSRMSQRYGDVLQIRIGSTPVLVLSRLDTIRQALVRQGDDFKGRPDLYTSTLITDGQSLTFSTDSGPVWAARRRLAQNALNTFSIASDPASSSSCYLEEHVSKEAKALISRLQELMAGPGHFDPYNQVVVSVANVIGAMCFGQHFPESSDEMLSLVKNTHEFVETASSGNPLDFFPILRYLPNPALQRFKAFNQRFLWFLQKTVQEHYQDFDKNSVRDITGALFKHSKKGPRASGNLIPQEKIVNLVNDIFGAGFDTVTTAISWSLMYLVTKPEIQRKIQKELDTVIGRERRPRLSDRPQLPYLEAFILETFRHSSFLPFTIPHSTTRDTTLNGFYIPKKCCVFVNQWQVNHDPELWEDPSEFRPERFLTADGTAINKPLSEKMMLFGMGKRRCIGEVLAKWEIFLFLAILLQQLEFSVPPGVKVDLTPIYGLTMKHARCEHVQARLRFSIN
Sequence of CYP3A4 (P08684 whole entry, looked up): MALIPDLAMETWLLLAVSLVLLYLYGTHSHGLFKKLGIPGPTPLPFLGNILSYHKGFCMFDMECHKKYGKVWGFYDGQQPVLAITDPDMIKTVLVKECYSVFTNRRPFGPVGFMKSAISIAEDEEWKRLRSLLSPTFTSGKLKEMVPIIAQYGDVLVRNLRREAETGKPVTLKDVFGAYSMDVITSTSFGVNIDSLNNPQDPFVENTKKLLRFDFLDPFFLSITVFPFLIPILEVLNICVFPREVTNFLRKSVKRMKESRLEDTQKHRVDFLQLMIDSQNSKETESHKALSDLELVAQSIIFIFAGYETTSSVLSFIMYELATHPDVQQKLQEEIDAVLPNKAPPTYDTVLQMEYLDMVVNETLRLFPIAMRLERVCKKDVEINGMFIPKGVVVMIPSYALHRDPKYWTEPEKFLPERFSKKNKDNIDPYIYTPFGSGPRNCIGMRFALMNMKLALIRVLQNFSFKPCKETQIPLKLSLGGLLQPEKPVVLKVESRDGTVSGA
Sequence of CYP2C19 (P33261 whole entry, looked up): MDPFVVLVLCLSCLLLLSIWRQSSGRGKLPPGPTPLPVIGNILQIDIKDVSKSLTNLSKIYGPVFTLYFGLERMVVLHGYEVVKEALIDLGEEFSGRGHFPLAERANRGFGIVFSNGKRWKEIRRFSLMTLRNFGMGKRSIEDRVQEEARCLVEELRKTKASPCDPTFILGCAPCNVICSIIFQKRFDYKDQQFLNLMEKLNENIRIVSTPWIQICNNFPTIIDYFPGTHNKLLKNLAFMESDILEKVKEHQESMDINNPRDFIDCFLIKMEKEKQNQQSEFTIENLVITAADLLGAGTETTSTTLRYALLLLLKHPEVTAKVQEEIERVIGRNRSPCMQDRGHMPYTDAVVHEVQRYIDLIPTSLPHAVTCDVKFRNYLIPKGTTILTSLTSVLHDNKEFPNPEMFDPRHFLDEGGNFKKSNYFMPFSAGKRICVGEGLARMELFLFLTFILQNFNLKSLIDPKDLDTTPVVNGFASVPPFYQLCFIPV

Compound | pIC50 [1] | inhibition at 10 min, 10 µM [1] [%] | pIC50 [2] | inhibition at 10 min, 10 µM [2] [%] | pIC50 [3] | inhibition at 10 min, 10 µM [3] [%] | pIC50 [4] | inhibition at 10 min, 10 µM [4] [%] | pIC50 [5] | inhibition at 10 min, 10 µM [5] [%] | 5-HT2C % Act @ Max Dose [6] [%] | pEC50 [6] | AUC(0-t) ([7]; 10 mg/kg) [ng·h/mL] | Cmax ([7]; 10 mg/kg) [ng/mL] | Tmax ([7]; 10 mg/kg) [min] | Cmax ([8]; 10 mg/kg) [ng/g] | Tmax ([8]; 10 mg/kg) [min] | half-life ([8]; 10 mg/kg) [min] | AUC0-last ([8]; 10 mg/kg) | other results
CCN(C)CCc1c[nH]c2ccccc12 [Compound 2, methylethyltryptamine] | < 4.30 | 0 | 4.50 | 11.5 | < 4.30 | 0.5 | < 4.30 | 0 | < 4.30 | 0 | 89.7 |  |  |  |  |  |  |  |  | 
CCCN(CC)CCc1c[nH]c2ccccc12 [Compound 1, ethylpropyltryptamine] |  | 2 |  | 58.6 |  | 37.1 |  | 2.3 |  | 0.1 | 90.8 | 7.48 |  |  |  |  |  |  |  | 
CCCN(CC)CCc1c[nH]c2ccc(F)cc12 [Compound 3, N-ethyl-N-(2-(5-fluoro-1H-indol-3-yl)ethyl) propan-1-amine hydrochloride] | < 4.30 |  | 5.72 |  | 5.08 |  | < 4.30 |  | < 4.30 |  |  |  |  |  |  |  |  |  |  | 
CCN(C)CCc1c[nH]c2cccc(O)c12 [Compound 6] | < 4.30 |  | 4.31 |  | < 4.30 |  | < 4.30 |  | < 4.30 |  |  |  | 3000 | 624 | 120 | 6160 | 120 | 125 | 30,638.13 h*ng/g | 
CN(C)CCc1c[nH]c2ccc(F)cc12 [Compound 5, 2-(5-fluoro-1H-indol-3-yl)-N,N-dimethylethan-1-amine hydrochloride] |  |  |  |  |  |  |  |  |  |  |  |  | 266 | 243 | 15 | 275 | 15 | 23.4 | 93.99 ng·h/g | half-life ([7]; 10 mg/kg): 33 min
CCN(C)CCc1c[nH]c2ccc(F)cc12 [Compound 4, N-ethyl-2-(5-fluoro-1H-indol-3-yl)-N-methylethan-1-amine hydrochloride] | < 4.30 |  | < 4.30 |  | < 4.30 |  | < 4.30 |  | < 4.30 |  | 85.13 | 8.02 | 499 | 237 | 60 | 2480 | 60 | 31.2 | 4,710.96 h*ng/g | AUC(0-t) ([7]; 1 mg/kg): 46.8 ng·h/mL; Cmax ([7]; 1 mg/kg): 41.3 ng/mL; Tmax ([7]; 1 mg/kg): 30 min; Cmax ([8]; 1 mg/kg): 188 ng/g; Tmax ([8]; 1 mg/kg): 15 min; half-life ([8]; 1 mg/kg): 23.4 min; AUC0-last ([8]; 1 mg/kg): 197.70 ng·h/g
